The source of these data is patent US20240199546A1, “INHIBITORS OF SOLUTE CARRIER FAMILY 6A MEMBER 19 (SLC6A19) AND METHODS OF USE THEREOF” (Maze Therapeutics, Inc., priority 2022, published 2024).

A word on the IC50: it is the concentration needed to halve the response being measured.

This assay concerns the target T1, human SLC6A19 and TMEM27 (Homo sapiens, UniProt Q695T7).
T1 construct: expressed in transfected cells
T1 sequence (Q695T7 1-634): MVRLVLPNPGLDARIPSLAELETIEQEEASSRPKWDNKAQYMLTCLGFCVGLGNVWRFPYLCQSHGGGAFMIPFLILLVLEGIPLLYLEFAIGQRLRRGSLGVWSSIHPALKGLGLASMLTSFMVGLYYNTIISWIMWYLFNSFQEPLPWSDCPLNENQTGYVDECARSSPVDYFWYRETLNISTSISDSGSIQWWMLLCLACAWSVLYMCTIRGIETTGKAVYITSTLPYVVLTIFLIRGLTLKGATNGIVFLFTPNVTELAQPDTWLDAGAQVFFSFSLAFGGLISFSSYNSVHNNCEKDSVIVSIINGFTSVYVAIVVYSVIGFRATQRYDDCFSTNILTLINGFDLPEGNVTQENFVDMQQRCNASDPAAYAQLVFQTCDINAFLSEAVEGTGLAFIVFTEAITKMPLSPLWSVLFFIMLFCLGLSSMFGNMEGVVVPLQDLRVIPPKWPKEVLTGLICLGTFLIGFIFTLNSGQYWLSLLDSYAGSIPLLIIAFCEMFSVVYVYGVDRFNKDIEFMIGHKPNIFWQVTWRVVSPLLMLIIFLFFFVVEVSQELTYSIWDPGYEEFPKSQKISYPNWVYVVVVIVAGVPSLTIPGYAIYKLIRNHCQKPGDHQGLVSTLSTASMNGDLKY
T1 sequence (Q9HBJ8 15-222 partner): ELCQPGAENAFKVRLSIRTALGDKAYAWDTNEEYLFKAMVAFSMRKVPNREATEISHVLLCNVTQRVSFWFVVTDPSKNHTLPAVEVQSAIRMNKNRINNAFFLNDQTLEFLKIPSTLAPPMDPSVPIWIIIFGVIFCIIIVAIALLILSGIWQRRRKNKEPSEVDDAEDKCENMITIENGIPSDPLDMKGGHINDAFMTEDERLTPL
Nature of the assay: Radiolabelled (3H) leucine uptake in CHO cells with doxycycline-inducible expression of human SLC6A19 and TMEM27 (Example B-1). The assay is classed as cell-based. The note with it: CHO cells with doxycycline-inducible expression of human SLC6A19 and TMEM27, read-out: SLC6A19_Radioligand Uptake Assay IC50. On the procedure:
The flasks were then incubated (humidified, 37° C. with 5% CO2) for 2 minutes. After incubation, 10 mL of pre-warmed cell culture media was added to each flask. The cell suspension was collected and centrifuged for 5 minutes at 200×g. The supernatant was aspirated and the pellet was resuspended in 5 mL pre-warmed cell culture media. The resuspended cells were counted using the Countess Cell Counting Chamber (Invitrogen) and the cell concentration of the suspension was readjusted to 1 million live cells/mL using pre-warmed cell culture media. […] Assay plates were then incubated (humidified, 37° C. with 5% CO2) for 18 hours. After incubation, the media was aspirated and the wells were washed 4 times with pre-warmed HBSS (Sigma-Aldrich, H8264-1L) using an Apricot S-Pipette S2 (Apricot Designs), such that 5 uL/well HBSS was remaining at the end of each wash. […] At this step, the final in-well DMSO concentration in the assay plate is 0.5%. All compounds were plated in a duplicate 8-point dilution series that consisted of 3-fold dilutions. The plates were incubated with compound (humidified, 37° C. with 5% CO2) for 1 hour. […] The plates were then incubated (humidified, 37° C. with 5% CO2) on a plate shaker at 200 rpm for 2 hours. After incubation, the plates were removed from the shaker and kept at room temperature for 15 minutes. Liquid scintillation analysis was performed using the MicroBeta2 Microplate Counter (Perkin Elmer). Activity (%) was derived by normalizing the average of positive control compound treated wells to 0% and the average of DMSO (negative control) wells to 100%. Collaborative Drug Discovery software was used for graphing data.
As for `Cc1cc(COc2cc3[nH]c(CNC(=O)[C@H]4C[C@H]4F)cc3cc2Cl)on1` [Compound 539, (1R,2R)-N-((5-chloro-6-((3-methylisoxazol-5-yl)methoxy)-1H-indol-2-yl)methyl)-2-fluorocyclopropane-1-carboxamide], the IC50 is 0.123 µM.
The result for `Cc1cc(COc2cc3[nH]c(CNC(=O)CC4CCCO4)cc3cc2Cl)on1` (stereo not drawn) [Compound 310, N-((5-chloro-6-((3-methylisoxazol-5-yl)methoxy)-1H-indol-2-yl)methyl)-2-(tetrahydrofuran-2-yl)acetamide] reads 2.52 µM; that for `O=C(NCc1cc2cc(Cl)c(OCc3cscn3)cc2[nH]1)[C@H]1C[C@@H]1F` [Compound 544, (1R,2S)-N-((5-chloro-6-(thiazol-4-ylmethoxy)-1H-indol-2-yl)methyl)-2-fluorocyclopropane-1-carboxamide], 0.119 µM.
The result for `CSc1cc2cc(CNC(=O)C3(C)CC3)[nH]c2cc1OCc1cscn1` [Compound 348, 1-methyl-N-((5-(methylthio)-6-(thiazol-4-ylmethoxy)-1H-indol-2-yl)methyl)cyclopropane-1-carboxamide] reads 0.516 µM; that for `Cc1cnc(COc2cc3[nH]c(CNC(=O)C4(C)CC4)cc3cc2F)o1` [Compound 73, N-((5-fluoro-6-((5-methyloxazol-2-yl)methoxy)-1H-indol-2-yl)methyl)-1-methylcyclopropane-1-carboxamide], 1.47 µM.
For `CC1CN(C(=O)NCc2cc3cc(Cl)c(OCc4cscn4)cc3[nH]2)C1` [Compound 80, N-((5-chloro-6-(thiazol-4-ylmethoxy)-1H-indol-2-yl)methyl)-3-methylazetidine-1-carboxamide], the IC50 is 0.35 µM.
Regarding `O=C(NCc1cc2cc(Cl)c(OCc3cscn3)cc2[nH]1)C1CCCC1` [Compound 489, N-((5-chloro-6-(thiazol-4-ylmethoxy)-1H-indol-2-yl)methyl)cyclopentanecarboxamide], the IC50 amounted to 0.325 µM.
As to `Cc1cc(COc2cc3[nH]c(CNC(=O)C4CCO4)cc3cc2F)on1` (stereo not drawn) [Compound 262, N-((5-fluoro-6-((3-methylisoxazol-5-yl)methoxy)-1H-indol-2-yl)methyl)oxetane-2-carboxamide], the IC50 was found to be 0.472 µM.
The result for `CC(C#N)C(=O)NCc1cc2cc(Cl)c(OCc3cscn3)cc2[nH]1` (racemic) [Compound 445, (S)-N-((5-chloro-6-(thiazol-4-ylmethoxy)-1H-indol-2-yl)methyl)-2-cyanopropanamide and (R)-N-((5-chloro-6-(thiazol-4-ylmethoxy)-1H-indol-2-yl)methyl)-2-cyanopropanamide] reads 0.444 µM.
For `Cc1cc(COc2cc3[nH]c(CNC(=O)Cn4ccnn4)cc3cc2Cl)on1` [Compound 520, N-((5-chloro-6-((3-methylisoxazol-5-yl)methoxy)-1H-indol-2-yl)methyl)-2-(1H-1,2,3-triazol-1-yl)acetamide], the IC50 was found to be 6.73 µM.
The result for `O=C(NCc1cc2cc(Cl)c(OCc3ccon3)cc2[nH]1)N1CCCCC1` [Compound 85, N-((5-chloro-6-(isoxazol-3-ylmethoxy)-1H-indol-2-yl)methyl)piperidine-1-carboxamide] reads 0.402 µM; that for `CC1(C(=O)NCc2cc3cc(Cl)c(OCc4ccccc4O)cc3[nH]2)CC1` [Compound 203, N-((5-chloro-6-((2-hydroxybenzyl)oxy)-1H-indol-2-yl)methyl)-1-methylcyclopropane-1-carboxamide], 1.09 µM; that for `Cc1cc(COc2cc3[nH]c(CNC(=O)[C@H]4CCCO4)cc3cc2Cl)on1` [Compound 311, (R)-N-((5-chloro-6-((3-methylisoxazol-5-yl)methoxy)-1H-indol-2-yl)methyl)tetrahydrofuran-2-carboxamide], 0.129 µM.
Turning to `O=C(NCc1cc2cc(F)c(OCc3cscn3)cc2[nH]1)N1CCC1` [Compound 92, N-((5-fluoro-6-(thiazol-4-ylmethoxy)-1H-indol-2-yl)methyl)azetidine-1-carboxamide], the IC50 is 0.214 µM.
Take `COCC(=O)NCc1cc2cc(Cl)c(OCc3cc(C)no3)cc2[nH]1` [Compound 272, N-((5-chloro-6-((3-methylisoxazol-5-yl)methoxy)-1H-indol-2-yl)methyl)-2-methoxyacetamide]: the IC50 was 0.0789 µM.
As for `Cc1cc(COc2cc3[nH]c(CNC(=O)CO)cc3cc2Cl)on1` [Compound 242, N-((5-chloro-6-((3-methylisoxazol-5-yl)methoxy)-1H-indol-2-yl)methyl)-2-hydroxyacetamide], the IC50 came to 0.674 µM.
As for `O=C(NCc1cc2cc(Cl)c(OCc3cscn3)cc2[nH]1)C(F)CF` (racemic) [Compound 639, N-((5-chloro-6-(thiazol-4-ylmethoxy)-1H-indol-2-yl)methyl)-2,3-difluoropropanamide], the IC50 turned out to be 0.112 µM.
The result for `CC(=O)NCc1cc2cc(Cl)c(OCCOC(F)(F)F)cc2[nH]1` [Compound 338, N-((5-chloro-6-(2-(trifluoromethoxy)ethoxy)-1H-indol-2-yl)methyl)acetamide] reads 0.159 µM; that for `CC(=O)NCc1cc2c(F)cc(OCc3cscn3)cc2[nH]1` [Compound 525, N-((4-fluoro-6-(thiazol-4-ylmethoxy)-1H-indol-2-yl)methyl)acetamide], 0.157 µM.
As to `O=C(NCc1cc2cc(Cl)c(OCc3ccon3)cc2[nH]1)C1CC(F)(F)C1` [Compound 491, N-((5-chloro-6-(isoxazol-3-ylmethoxy)-1H-indol-2-yl)methyl)-3,3-difluorocyclobutane-1-carboxamide], the half-maximal inhibitory concentration (IC50) is 0.814 µM.
The result for `CC1(C(=O)NCc2cc3c(F)c(Cl)c(OCc4cscn4)cc3[nH]2)CC1` [Compound 17, N-((5-chloro-4-fluoro-6-(thiazol-4-ylmethoxy)-1H-indol-2-yl)methyl)-1-methylcyclopropane-1-carboxamide] reads 0.362 µM; that for `CC(=O)NCc1cc2cc(Cl)c(OCC3COCCO3)cc2[nH]1` (stereo not drawn) [Compound 457, N-((6-((1,4-dioxan-2-yl)methoxy)-5-chloro-1H-indol-2-yl)methyl)acetamide], 3.64 µM.
For the compound `Cc1cc(COc2cc3[nH]c(CNC(=O)[C@H]4C[C@@H]5CC[C@H]4O5)cc3cc2Cl)on1` (racemic) [Compound 297, (1R,2S,4S)-N-((5-chloro-6-((3-methylisoxazol-5-yl)methoxy)-1H-indol-2-yl)methyl)-7-oxabicyclo[2.2.1]heptane-2-carboxamide and (1S,2R,4R)-N-((5-chloro-6-((3-methylisoxazol-5-yl)methoxy)-1H-indol-2-yl)methyl)-7-oxabicyclo[2.2.1]heptane-2-carboxamide], the IC50 stood at 1.02 µM.
The result for `O=C(NCc1cc2cc(Cl)c(OCc3cscn3)cc2[nH]1)C12CCC(CC1)C2` [Compound 556, N-((5-chloro-6-(thiazol-4-ylmethoxy)-1H-indol-2-yl)methyl)bicyclo[2.2.1]heptane-1-carboxamide] reads 1.2 µM; that for `C[C@@H]1CCCN1C(=O)NCc1cc2cc(F)c(OCc3ccon3)cc2[nH]1` [Compound 383, (R)-N-((5-fluoro-6-(isoxazol-3-ylmethoxy)-1H-indol-2-yl)methyl)-2-methylpyrrolidine-1-carboxamide], 0.178 µM.
For `Cc1cc(COc2cc3[nH]c(CNC(=O)CC4CCO4)cc3cc2Cl)on1` (stereo not drawn) [Compound 245, N-((5-chloro-6-((3-methylisoxazol-5-yl)methoxy)-1H-indol-2-yl)methyl)-2-(oxetan-2-yl)acetamide], the IC50 amounted to 1.19 µM.
Next, `CC1(C(=O)NCc2cc3cc(CC#N)c(OCc4cscn4)cc3[nH]2)CC1` [Compound 643, N-((5-(cyanomethyl)-6-(thiazol-4-ylmethoxy)-1H-indol-2-yl)methyl)-1-methylcyclopropane-1-carboxamide]: 0.631 µM.
